# Measurements from patent US7767704B2, “Antiviral 4-aminocarbonylamino-substituted imidazole compounds” (AiCuris GmbH & Co. KG, priority 2004, dated 2010).
# How the values were obtained:
# HCMV = assay: Anti-HCMV (anti-human cytomegalovirus) cytopathogenicity test; assay type: cell-based; settings: Human betaherpesvirus 5, 144 h; HCMV-infected NHDF cells, M.O.I. 0.001-0.002, 6 days; inhibition of CPE by 50% vs untreated virus control
# Experimental: (§1) Anti-HCMV (Anti-human Cytomegalovirus) Cytopathogenicity Tests
# (§2) The test compounds are employed as 50 millimolar (mM) solutions in dimethyl sulphoxide (DMSO). Ganciclovir, foscarnet and cidofovir are used as reference compounds. After addition of in each case 2 μl of the 50, 5, 0.5 and 0.05 mM DMSO stock solutions to 98 μl portions of cell culture medium in row 2 A-H for duplicate determinations, 1:2 dilutions are carried out with 50 μl portions of medium up to row 11 of the 96-well plate. The wells in rows 1 and 12 each contain 50 μl of medium. 150 μl of a suspension of 1×10^4 cells (human prepuce fibroblasts [NHDF]) are pipetted into each of the wells (row 1=cell control) and, in rows 2-12, a mixture of HCMV-infected and uninfected NHDF cells (M.O.I.=0.001-0.002), i.e. 1-2 infected cells per 1000 uninfected cells. Row 12 (without substance) serves as virus control. The final test concentrations are 250-0.0005 μM. The plates are incubated at 37° C./5% CO2 for 6 days, i.e. until all the cells are infected in the virus controls (100% cytopathogenic effect [CPE]). The wells are then fixed and stained by adding a mixture of formalin and Giemsa's dye (30 minutes), washed with double-distilled water and dried in a drying oven at 50° C. The plates are then assessed visually using an overhead microscope (plaque multiplier from Technomara).
# (§3) The following data can be acquired from the test plates: • CC50 (NHDF)=substance concentration in μM at which no visible cytostatic effects on the cells are evident by comparison with the untreated cell control; • EC50 (HCMV)=substance concentration in […] which inhibits the CPE (cytopathic effect) by 50% compared with the untreated virus control; • SI (selectivity index)=CC50 (NHDF)/EC50 (HCMV).
# [1] = Cytostatic effect on NHDF cells in the anti-HCMV cytopathogenicity test; assay type: cell-based; settings: NHDF cells (human prepuce fibroblasts), 6 days incubation, visual assessment, concentration at which no visible cytostatic effects are evident
# Experimental: as §1, §2, §3
EC50 (HCMV) [nM],SMILES,CC50 at 6 days [1] [nM]
1,COc1ccc(CNC(=O)c2nc(NC(=O)Nc3ccc(OC(F)(F)F)cc3)cn2CC2CC2)cc1 [Example 32],3130
1.9,"Cn1cc(NC(=O)Nc2ccc(OC(F)(F)F)cc2)nc1C(=O)NCCCC(F)(F)F [Example 152, 1-Methyl-N-(4,4,4-trifluorobutyl)-4-[({[4-(trifluoromethoxy)phenyl]amino}carbonyl)amino]-1H-imidazole-2-carboxamide]",31000
1.4,"O=C(Nc1ccc(OC(F)(F)F)cc1)Nc1cn(Cc2ccc(C(F)(F)F)cc2)c(C(=O)NCCO)n1 [Example 124, N-(2-Hydroxyethyl)-4-[({[4-(trifluoromethoxy)phenyl]amino}carbonyl)amino]-1-[4-(trifluoromethyl)benzyl]-1H-imidazole-2-carboxamide]",9400
2.8,O=C(Nc1ccc(OC(F)(F)F)cc1)Nc1cn(Cc2ccc(C(F)(F)F)cc2)c(C(=O)NCCOC(=O)CN2CCOCC2)n1 [Example 139],4700

# The remaining lines, values behind:
SMILES,EC50 (HCMV) [nM],CC50 at 6 days [1] [nM]
COCCOCCCNC(=O)c1nc(NC(=O)Nc2ccc(Cl)cc2C)cn1CC=C(C)C [Example 25],1,6250
"COc1ccc(C(C)NC(=O)c2nc(NC(=O)Nc3ccc(C)c(F)c3)cn2C)cn1 (stereo not shown) [Example 2, 4-({[(3-Fluoro-4-methylphenyl)amino]carbonyl}amino)-N-[1-(6-methoxypyridin-3-yl)ethyl]-1-methyl-1H-imidazole-2-carboxamide]",0.5,94000
"Cc1cc(Cl)ccc1NC(=O)Nc1cn(CC2CC2)c(C(=O)NCCCN2CCOCC2)n1 [Example 3, 4-({[(4-Chloro-2-methylphenyl)amino]carbonyl}amino)-1-(cyclopropylmethyl)-N-(3-morpholin-4-ylpropyl)-1H-imidazole-2-carboxamide]",3,25000
Cc1cc(Cl)ccc1NC(=O)Nc1cn(CC2CC2)c(C(=O)NCCCn2cccn2)n1 [Example 11],1,25000
